The results in this text go back to patent US20070117770A1, “Human ribosomal DNA (rDNA) and ribosomal RNA (rRNA) nucleic acids and uses thereof” (Cylene Pharmaceuticals, Inc., priority 2005, published 2007).

What all share (experiment): Protein kinase inhibition assay
Common to all, as to assay type: biochemical

One test concerns the target cKit(h) (Homo sapiens, UniProt P10721). The note with it: read-out: percent residual activity of cKit(h). The protocol:
(§1) Certain compounds were tested for activity in protein kinase inhibition assays. All substrates were dissolved and diluted to working stocks in de-ionized water, apart from histone H1 (10× working stock in 20 mM MOPS pH 7.0), PDKtide (10× working stock in 50 mM Tris pH 7.0) ATF2 (which is typically stored at a 20× working stock in 50 mM Tris pH 7.5, 150 mM NaCl, 0.1 mM EGTA, 0.03% Brij-35, 50% glycerol, 1 mM benzamidine, 0.2 mM PMSF and 0.1% R-mercaptoethanol), KKLNRTLSFAEPG (SEQ ID NO:203) and RRRLSFAEPG (SEQ ID NO:204) (50 mM HEPES pH 7.4) and GGEEEEYFELVKKKK (SEQ ID NO:205) (20 mM MOPS pH 7.0). All kinases were pre-diluted to a 10× working concentration prior to addition into the assay. The composition of the dilution buffer for each kinase is detailed below.
(§2) In a final reaction volume of 25 μl, cKit (h) (5-10 mU) is incubated with 8 mM MOPS pH 7.0, 0.2 mM EDTA, 10 mM MnCl2, 0.1 mg/ml poly(Glu, Tyr) 4:1, 10 mM MgAcetate and [gamma-33P-ATP] (specific activity approx. 500 cpm/pmol, concentration as required). The reaction is initiated by the addition of the MgATP mix. After incubation for 40 minutes at room temperature, the reaction is stopped by the addition of 5 μl of a 3% phosphoric acid solution. 10 μl of the reaction is then spotted onto a Filtermat A and washed three times for 5 minutes in 75 mM phosphoric acid and once in methanol prior to drying and scintillation counting.

For the next test, the target named is FGFR2(h) (Homo sapiens, UniProt P21802). The following applies: read-out: percent residual activity of FGFR2(h). The protocol:
as §1
as §2, with “μl, FGFR2” for “μl, cKit”, “EDTA, 2.5” for “EDTA, 10”

A further test addresses MST2(h) (Homo sapiens, UniProt Q13188). The following applies: read-out: percent residual activity of MST2(h). The protocol:
as §1
as §2, with “MST2” for “cKit”, “0.33” for “10 mM MnCl2, 0.1”, “myelin basic protein,” for “poly(Glu, Tyr) 4:1,”, “P30 filtermat” for “Filtermat A”

The target of another test is Plk3(h) (Homo sapiens, UniProt Q9H4B4). The note with it: read-out: percent residual activity of Plk3(h). The protocol: as §1
as §2, with “Plk3” for “cKit”, “2” for “10 mM MnCl2, 0.1”, “casein,” for “poly(Glu, Tyr) 4:1,”, “P30 filtermat” for “Filtermat A”

A further test addresses ROCK-II(h) (Homo sapiens, UniProt O75116). The note with it: read-out: percent residual activity of ROCK-II(h). The protocol:
as §1
In a final reaction volume of 25 μl, ROCK-II (h) (5-10 mU) is incubated with 50 mM Tris pH 7.5, […] EGTA, 30 μM […] (SEQ ID NO:222), 10 mM MgAcetate and [y-33P-ATP] (specific activity approx. 500 cpm/pmol, concentration as required). The reaction is initiated by the addition of the MgATP mix. After incubation for 40 minutes at room temperature, the reaction is stopped by the addition of 5 μl of a 3% phosphoric acid solution. 10 μl of the reaction is then spotted onto a P30 filtermat and washed three times for 5 minutes in 75 mM phosphoric acid and once in methanol prior to drying and scintillation counting.

Another test concerns the target Ron(h) (Homo sapiens, UniProt Q04912). The following applies: read-out: percent residual activity of Ron(h). The protocol: as §1
as §2, with “Ron” for “cKit”, “250 μM KKSRGDYMTMQIG (SEQ ID NO:210),” for “10 mM MnCl2, 0.1 mg/ml poly(Glu, Tyr) 4:1,”, “P30 filtermat” for “Filtermat A”

cKit(h), sequence (P10721 26-976): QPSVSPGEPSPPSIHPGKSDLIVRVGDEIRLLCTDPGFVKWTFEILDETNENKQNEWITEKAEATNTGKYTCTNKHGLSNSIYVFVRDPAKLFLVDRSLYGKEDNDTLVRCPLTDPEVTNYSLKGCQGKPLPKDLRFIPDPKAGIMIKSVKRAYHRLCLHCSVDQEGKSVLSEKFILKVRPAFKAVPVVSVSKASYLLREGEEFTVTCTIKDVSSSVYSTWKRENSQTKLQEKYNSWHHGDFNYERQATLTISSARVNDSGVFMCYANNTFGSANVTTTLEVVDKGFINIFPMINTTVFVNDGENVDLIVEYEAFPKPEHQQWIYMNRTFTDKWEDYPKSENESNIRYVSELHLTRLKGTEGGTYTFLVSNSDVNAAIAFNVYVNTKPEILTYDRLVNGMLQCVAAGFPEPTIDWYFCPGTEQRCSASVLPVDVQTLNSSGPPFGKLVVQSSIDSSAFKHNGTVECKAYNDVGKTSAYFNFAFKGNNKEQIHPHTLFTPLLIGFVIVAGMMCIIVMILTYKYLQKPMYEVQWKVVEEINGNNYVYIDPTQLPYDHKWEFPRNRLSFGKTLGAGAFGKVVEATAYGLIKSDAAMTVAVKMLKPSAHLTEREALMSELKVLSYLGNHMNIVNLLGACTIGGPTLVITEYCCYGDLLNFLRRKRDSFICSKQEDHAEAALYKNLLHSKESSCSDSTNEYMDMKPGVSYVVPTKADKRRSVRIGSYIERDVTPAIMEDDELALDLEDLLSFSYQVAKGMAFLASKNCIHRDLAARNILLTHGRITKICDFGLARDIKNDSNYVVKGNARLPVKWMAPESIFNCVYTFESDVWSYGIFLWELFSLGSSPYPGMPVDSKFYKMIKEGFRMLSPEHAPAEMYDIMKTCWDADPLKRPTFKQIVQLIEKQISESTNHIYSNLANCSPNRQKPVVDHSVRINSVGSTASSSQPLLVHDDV
MST2(h), sequence (Q13188 whole entry): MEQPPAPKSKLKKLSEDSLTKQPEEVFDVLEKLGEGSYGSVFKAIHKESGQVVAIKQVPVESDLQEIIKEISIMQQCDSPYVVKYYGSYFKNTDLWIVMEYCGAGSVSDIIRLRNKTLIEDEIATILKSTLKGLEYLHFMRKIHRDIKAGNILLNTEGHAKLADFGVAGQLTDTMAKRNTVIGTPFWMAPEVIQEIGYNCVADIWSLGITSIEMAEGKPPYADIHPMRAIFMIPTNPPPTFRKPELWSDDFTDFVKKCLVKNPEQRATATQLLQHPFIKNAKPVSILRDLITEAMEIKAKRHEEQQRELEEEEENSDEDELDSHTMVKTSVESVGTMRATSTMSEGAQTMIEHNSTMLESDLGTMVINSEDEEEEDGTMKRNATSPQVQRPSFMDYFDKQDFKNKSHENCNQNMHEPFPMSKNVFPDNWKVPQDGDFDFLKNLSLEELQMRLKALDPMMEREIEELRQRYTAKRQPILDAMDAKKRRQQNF
Ron(h), sequence (Q04912 25-1400): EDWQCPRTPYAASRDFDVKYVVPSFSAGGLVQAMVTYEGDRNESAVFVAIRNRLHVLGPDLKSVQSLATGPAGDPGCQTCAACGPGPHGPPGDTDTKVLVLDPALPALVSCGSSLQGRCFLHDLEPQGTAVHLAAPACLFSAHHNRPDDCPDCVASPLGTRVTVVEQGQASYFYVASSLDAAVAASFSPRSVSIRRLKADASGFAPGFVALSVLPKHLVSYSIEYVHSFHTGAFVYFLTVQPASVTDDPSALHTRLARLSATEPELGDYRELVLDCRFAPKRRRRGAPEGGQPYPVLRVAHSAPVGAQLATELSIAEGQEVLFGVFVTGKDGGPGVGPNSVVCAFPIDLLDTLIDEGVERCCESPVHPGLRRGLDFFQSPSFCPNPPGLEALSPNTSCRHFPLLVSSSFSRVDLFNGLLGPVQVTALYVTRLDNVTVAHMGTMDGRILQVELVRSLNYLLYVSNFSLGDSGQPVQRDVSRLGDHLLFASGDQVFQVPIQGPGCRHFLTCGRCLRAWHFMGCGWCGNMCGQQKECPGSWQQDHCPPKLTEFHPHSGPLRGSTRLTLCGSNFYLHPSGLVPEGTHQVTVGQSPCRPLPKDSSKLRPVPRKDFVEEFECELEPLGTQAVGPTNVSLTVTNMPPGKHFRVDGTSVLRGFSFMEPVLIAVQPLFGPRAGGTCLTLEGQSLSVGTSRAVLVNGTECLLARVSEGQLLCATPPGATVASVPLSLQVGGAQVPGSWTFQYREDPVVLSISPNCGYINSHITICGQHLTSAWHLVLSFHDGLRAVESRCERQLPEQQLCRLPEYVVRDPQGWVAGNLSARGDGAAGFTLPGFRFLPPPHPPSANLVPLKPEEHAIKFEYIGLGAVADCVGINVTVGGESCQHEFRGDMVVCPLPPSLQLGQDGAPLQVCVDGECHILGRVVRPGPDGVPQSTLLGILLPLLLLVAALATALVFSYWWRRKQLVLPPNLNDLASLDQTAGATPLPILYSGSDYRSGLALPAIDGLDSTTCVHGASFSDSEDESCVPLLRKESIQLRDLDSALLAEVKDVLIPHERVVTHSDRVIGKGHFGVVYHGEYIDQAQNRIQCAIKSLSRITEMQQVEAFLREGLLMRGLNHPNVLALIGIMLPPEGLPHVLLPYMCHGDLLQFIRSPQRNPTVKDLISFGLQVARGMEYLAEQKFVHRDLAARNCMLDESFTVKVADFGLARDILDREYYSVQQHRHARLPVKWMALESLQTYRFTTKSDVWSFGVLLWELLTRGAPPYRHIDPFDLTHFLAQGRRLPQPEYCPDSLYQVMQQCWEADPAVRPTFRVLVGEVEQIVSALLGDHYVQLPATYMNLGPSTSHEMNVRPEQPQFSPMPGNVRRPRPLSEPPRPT
ROCK-II(h), sequence (O75116 whole entry): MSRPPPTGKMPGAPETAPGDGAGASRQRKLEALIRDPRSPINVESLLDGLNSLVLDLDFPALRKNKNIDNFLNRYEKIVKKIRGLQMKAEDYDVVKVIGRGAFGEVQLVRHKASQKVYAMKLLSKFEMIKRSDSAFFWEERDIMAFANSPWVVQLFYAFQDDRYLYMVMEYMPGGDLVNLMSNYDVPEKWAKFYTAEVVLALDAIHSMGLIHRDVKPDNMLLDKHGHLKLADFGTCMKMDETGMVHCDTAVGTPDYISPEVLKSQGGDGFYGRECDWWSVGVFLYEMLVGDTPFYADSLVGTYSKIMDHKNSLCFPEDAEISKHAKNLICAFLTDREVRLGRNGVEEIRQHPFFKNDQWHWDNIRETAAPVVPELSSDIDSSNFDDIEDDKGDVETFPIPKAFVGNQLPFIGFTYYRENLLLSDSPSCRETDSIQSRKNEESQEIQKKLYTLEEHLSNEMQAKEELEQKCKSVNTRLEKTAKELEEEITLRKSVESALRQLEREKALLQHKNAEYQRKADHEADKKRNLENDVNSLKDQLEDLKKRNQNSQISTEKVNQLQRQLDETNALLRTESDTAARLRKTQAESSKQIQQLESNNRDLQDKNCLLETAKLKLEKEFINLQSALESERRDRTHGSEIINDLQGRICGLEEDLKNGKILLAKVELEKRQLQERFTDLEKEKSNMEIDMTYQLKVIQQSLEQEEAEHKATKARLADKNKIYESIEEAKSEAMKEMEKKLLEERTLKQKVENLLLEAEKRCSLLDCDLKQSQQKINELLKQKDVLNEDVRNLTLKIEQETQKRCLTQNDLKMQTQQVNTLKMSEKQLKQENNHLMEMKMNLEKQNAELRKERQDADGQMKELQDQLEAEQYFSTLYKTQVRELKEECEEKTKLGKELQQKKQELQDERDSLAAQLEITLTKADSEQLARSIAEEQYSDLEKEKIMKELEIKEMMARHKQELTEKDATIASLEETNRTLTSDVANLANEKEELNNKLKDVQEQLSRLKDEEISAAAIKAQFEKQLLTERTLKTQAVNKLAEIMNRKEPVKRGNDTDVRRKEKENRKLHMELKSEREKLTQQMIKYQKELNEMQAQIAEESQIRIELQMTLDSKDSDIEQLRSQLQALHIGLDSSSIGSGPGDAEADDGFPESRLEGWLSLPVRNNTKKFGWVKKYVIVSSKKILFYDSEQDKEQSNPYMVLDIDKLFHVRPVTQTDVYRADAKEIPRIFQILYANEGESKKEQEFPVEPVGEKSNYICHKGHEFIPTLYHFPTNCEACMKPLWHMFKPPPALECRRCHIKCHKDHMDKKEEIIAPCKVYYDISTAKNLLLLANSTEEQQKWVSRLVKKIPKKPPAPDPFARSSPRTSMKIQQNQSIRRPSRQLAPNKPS
FGFR2(h), sequence (P21802 22-821): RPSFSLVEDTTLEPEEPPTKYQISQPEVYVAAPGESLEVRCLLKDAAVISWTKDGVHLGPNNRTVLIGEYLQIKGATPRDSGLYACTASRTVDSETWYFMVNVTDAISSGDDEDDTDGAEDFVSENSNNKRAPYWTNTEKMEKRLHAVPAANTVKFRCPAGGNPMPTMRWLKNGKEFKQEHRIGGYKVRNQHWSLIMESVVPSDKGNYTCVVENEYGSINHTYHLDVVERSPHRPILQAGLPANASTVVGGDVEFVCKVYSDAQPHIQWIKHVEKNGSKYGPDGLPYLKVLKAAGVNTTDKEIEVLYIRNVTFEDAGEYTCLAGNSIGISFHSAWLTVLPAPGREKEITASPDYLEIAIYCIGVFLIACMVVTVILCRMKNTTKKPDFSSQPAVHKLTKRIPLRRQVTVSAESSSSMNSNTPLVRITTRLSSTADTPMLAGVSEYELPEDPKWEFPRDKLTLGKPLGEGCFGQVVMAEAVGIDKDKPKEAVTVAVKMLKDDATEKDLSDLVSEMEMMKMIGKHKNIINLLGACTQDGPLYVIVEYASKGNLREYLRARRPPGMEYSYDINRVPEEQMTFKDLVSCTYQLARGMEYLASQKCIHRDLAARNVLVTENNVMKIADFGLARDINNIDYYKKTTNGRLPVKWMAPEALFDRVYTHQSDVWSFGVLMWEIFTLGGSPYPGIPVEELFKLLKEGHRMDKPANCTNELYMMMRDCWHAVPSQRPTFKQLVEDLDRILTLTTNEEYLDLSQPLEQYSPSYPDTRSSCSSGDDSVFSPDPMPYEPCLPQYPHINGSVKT

As for `CN1CCCC1CCNC(=O)c1cn2c3c(c(N4CCC(c5cnccn5)C4)c(F)cc3c1=O)Oc1cc3ccccc3cc1-2` (stereo not drawn) [Compound A-1], the remaining activity at 2.5 µM on cKit(h) is 111%; at FGFR2(h), 76%; at MST2(h) it was 76%; at Plk3(h), 92%; at ROCK-II(h) it was 64%; at Ron(h), 71%.

Take `CC(=O)N1CCN(c2ccc3c(=O)c(C(=O)NCCN4CCCC4)c4n(C)c5ccccc5n4c3n2)CC1` [Compound B-1]: the remaining activity at 2.5 µM was 114% at cKit(h); 89% on FGFR2(h); 106% at MST2(h); 86% on Plk3(h); 115% at ROCK-II(h); 95% on Ron(h).
